Measurements as given in patent US9492542B2, “Pharmaceutical composition for the treatment of MCP-1 mediated inflammatory diseases” (priority 2009, dated 2016).
Read-outs that look alike come from different tables or passages of the source.

Tests used:
[1] = test system: MCP-1; test: Effect on LPS-induced MCP-1 plasma levels in mice (Example 1, ELISA); settings: calculated versus vehicle group; same doses and schedule as E1
Protocol: MCP-1 plasma levels were measured by commercially available ELISA kit. Drugs were intraperitoneally (ip) administered 30 minutes before LPS injection (50 μg/mouse, ip) to groups of eight mice. […] The percent reduction was calculated versus the vehicle group.

[2] = Effect on proteinuria in human: Urinary Albumin Excretion (UAE) in Type 2 diabetes patients (Example 2); type: in vivo; settings: 8 weeks, bindarit 600 mg twice a day, irbesartan 300 mg once a day
Text: Irbesartan is a well known angiotensin receptor blockers (ARB). The treatment lasted 8 weeks.

[3] = test system: MCP-1; settings: calculated versus vehicle group; same doses and schedule as E6
Protocol: MCP-1 plasma levels were measured by commercially available ELISA kit.
Drugs were intraperitoneally (ip) administered 30 minutes before LPS injection (50 μg/mouse, ip) to groups of six mice. At 3 hours following
LPS injection, mice were anesthetized and blood was withdrawn by intracardiac puncture in order to obtain plasma (heparinized samples) to be used to measure MCP-1 levels.
The percent reduction was calculated versus the vehicle group.

## CCCCc1nc(Cl)c(CO)n1Cc1ccc(-c2ccccc2-c2nn[nH]n2)cc1 [Losartan, losartan]
[1]
  MCP-1 plasma level % reduction: 13%

## CCCCC1=NC2(CCCC2)C(=O)N1Cc1ccc(-c2ccccc2-c2nnn[nH]2)cc1 [Placebo + Irbesartan, irbesartan]
[2]
  Patient percentage with a UAE reduction equal to or higher than 25% with respect to basal value: 27.5%

## CCOC(=O)[C@H](CCc1ccccc1)N[C@@H](C)C(=O)N1[C@H](C(=O)O)C[C@@H]2CCC[C@@H]21 [Ramipril, ramipril]
[1]
  MCP-1 plasma level % reduction: 30%

## CCC(C)(C)C(=O)O[C@H]1C[C@@H](C)C=C2C=C[C@H](C)[C@H](CC[C@@H]3C[C@@H](O)CC(=O)O3)[C@H]21 [Simvastatin, simvastatin]
[1]
  MCP-1 plasma level % reduction: 7%

## COc1ccc(CCN(C)CCCC(C#N)(c2ccc(OC)c(OC)c2)C(C)C)cc1OC (centres unmarked) [Verapamil, verapamil]
[3]
  MCP-1 plasma level % reduction: 26%
